In patent US20230219906A1, “MACROCYCLIC-2-AMINO-3-FLUORO-BUT-3-ENAMIDES AS INHIBITORS OF MCL-1” (Janssen Pharmaceutica NV, priority 2020, published 2023):
pKi: −log10 of the molar value. Where two headings read alike, the source gives them in different places.

Experiments:
[1] = target: Myeloid Cell Leukemia 1(Mcl-1) (Homo sapiens, UniProt Q07820); test: Terbium labeled Mcl-1 HTRF binding assay with Cy5-labeled BIM BH3 peptide; conditions: displacement of Cy5 Bim BH3 peptide; Ki=IC50/(1+[L]/Kd), [L]=8 nM, Kd=10 nM; 60 minutes at room temperature; read-out: Tb-MCL1 Ki
Method in brief: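 TR-FRET displacement of Cy5-BIM BH3 peptide (8 nM; Kd 10 nM) from 25 pM Tb-labelled Mcl-1 in 10 mM Tris-HCl pH 7.5, 150 mM NaCl, 2 mM DTT, 0.0025% Tween-20, 0.1 mg/mL BSA, 1% DMSO. 60 min at room temperature; 665/620 nm ratio normalized to controls, IC50 from 11-point curve.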

[2] = test system: MOLP-8 human multiple myeloma cell line; test: Caspase-Glo 3/7 apoptosis induction assay in MOLP-8 cells; format: cell-based; conditions: caspase-3/7 activity, 2 hours at 37° C., averaged over all runs on all batches, read-out: MOLP8 AC50
Method in brief: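 MOLP-8 cells were treated for 2 h at 37° C with 10-dose, 1/3 serial dilutions ([…], 0.5% DMSO final, duplicates). Caspase-3/7 activity was read by Caspase-Glo luminescence 30 min after reagent addition. % effect was normalised between low (1% DMSO) and high (positive control) controls.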

Sequence of Myeloid Cell Leukemia 1(Mcl-1) (Q07820 whole entry): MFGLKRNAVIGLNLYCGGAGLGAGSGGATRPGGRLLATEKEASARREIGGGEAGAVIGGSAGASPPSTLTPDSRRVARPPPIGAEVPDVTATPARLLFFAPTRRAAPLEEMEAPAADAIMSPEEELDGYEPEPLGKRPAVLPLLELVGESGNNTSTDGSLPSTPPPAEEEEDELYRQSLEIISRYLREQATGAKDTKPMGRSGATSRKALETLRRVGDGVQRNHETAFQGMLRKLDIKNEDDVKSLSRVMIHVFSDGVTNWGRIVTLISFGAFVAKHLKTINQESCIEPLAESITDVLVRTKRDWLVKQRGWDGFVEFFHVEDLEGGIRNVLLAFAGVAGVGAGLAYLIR

Row | SMILES | pKi [1] | AC50 [2] [nM] | AC50 ([2]; Homo sapiens, MOLP-8, 2 h) [nM]
1 | C[C@@H]1[C@@H](C)C/C=C(\F)[C@H](C(=O)N(C)CC2COCCO2)N2CCC[C@H]2CN2C[C@@]3(CCCc4cc(Cl)ccc43)COc3ccc(cc32)C(=O)NS1(=O)=O (single isomer, unassigned) [Compound 55] | 10.43 | 81.2 | –
2 | C[C@@H]1[C@@H](C)C/C=C(\F)[C@@H](C(=O)N(C)CCN2CCOCC2)N2CCC[C@H]2CN2C[C@@]3(CCCc4cc(Cl)ccc43)COc3ccc(cc32)C(=O)NS1(=O)=O (single isomer, unassigned) [Compound 33] | 9.71 | – | 218
3 | COCCN(C)C(=O)[C@H]1/C(F)=C/C[C@H](C)[C@@H](C)S(=O)(=O)NC(=O)c2ccc3c(c2)N(C[C@@H]2CCCN21)C[C@@]1(CCCc2cc(Cl)ccc21)CO3 [Compound 21] | 10.12 | – | 78
4 | C[C@@H]1[C@@H](C)C/C=C(\F)[C@H](C(=O)N(C)Cc2nnn(C)n2)N2CCC[C@H]2CN2C[C@@]3(CCCc4cc(Cl)ccc43)COc3ccc(cc32)C(=O)NS1(=O)=O [Compound 67] | 10.43 | – | 120
5 | C[C@@H]1[C@@H](C)C/C=C(\F)[C@H](C(=O)N(C)CCC2CCOCC2)N2CCC[C@H]2CN2C[C@@]3(CCCc4cc(Cl)ccc43)COc3ccc(cc32)C(=O)NS1(=O)=O (single isomer, unassigned) [Compound 2] | 10.05 | – | 89.2
6 | C[C@@H]1[C@@H](C)C/C=C(\F)[C@H](C(=O)N2CC3(CSC3)C2)N2CCC[C@H]2CN2C[C@@]3(CCCc4cc(Cl)ccc43)COc3ccc(cc32)C(=O)NS1(=O)=O [Compound 15] | 9.79 | – | 435
7 | C[C@@H]1[C@@H](C)C/C=C(\F)[C@H](C(=O)N(C)C)N2CCC[C@H]2CN2C[C@@]3(CCCc4cc(Cl)ccc43)COc3ccc(cc32)C(=O)NS1(=O)=O [Compound 3] | 9.89 | – | 99.2
8 | C[C@@H]1[C@@H](C)C/C=C(\F)[C@H](C(=O)N2CC[C@@H](C#N)C2)N2CCC[C@H]2CN2C[C@@]3(CCCc4cc(Cl)ccc43)COc3ccc(cc32)C(=O)NS1(=O)=O [Compound 47] | 10.19 | – | 241
9 | C[C@@H]1CN(C(=O)[C@H]2/C(F)=C/C[C@H](C)[C@@H](C)S(=O)(=O)NC(=O)c3ccc4c(c3)N(C[C@@H]3CCCN32)C[C@@]2(CCCc3cc(Cl)ccc32)CO4)CCO1 [Compound 4] | 10.08 | – | 71.3
10 | COCCN(CCN1CCOCC1)C(=O)[C@H]1/C(F)=C/C[C@H](C)[C@@H](C)S(=O)(=O)NC(=O)c2ccc3c(c2)N(C[C@@H]2CCCN21)C[C@@]1(CCCc2cc(Cl)ccc21)CO3 [Compound 76] | 10.77 | – | 36.7
11 | C[C@@H]1[C@@H](C)C/C=C(\F)[C@H](C(=O)N2CCN(C)[C@@H](C)C2)N2CCC[C@H]2CN2C[C@@]3(CCCc4cc(Cl)ccc43)COc3ccc(cc32)C(=O)NS1(=O)=O [Compound 24] | 10.17 | – | 151
12 | C[C@@H]1[C@@H](C)C/C=C(\F)[C@H](C(=O)N2CC(C(F)(F)F)C2)N2CCC[C@H]2CN2C[C@@]3(CCCc4cc(Cl)ccc43)COc3ccc(cc32)C(=O)NS1(=O)=O [Compound 36] | 9.49 | – | 399
13 | C[C@@H]1[C@@H](C)C/C=C(\F)[C@H](C(=O)N(C)CCN2CCOC(C(F)(F)F)C2)N2CCC[C@H]2CN2C[C@@]3(CCCc4cc(Cl)ccc43)COc3ccc(cc32)C(=O)NS1(=O)=O (single isomer, unassigned) [Compound 49] | 9.54 | – | 366
14 | C[C@@H]1[C@@H](C)C/C=C(\F)[C@H](C(=O)N(C)CCO)N2CCC[C@H]2CN2C[C@@]3(CCCc4cc(Cl)ccc43)COc3ccc(cc32)C(=O)NS1(=O)=O [Compound 27] | 10.27 | – | 396
15 | C[C@@H]1CN(C(=O)[C@H]2/C(F)=C/C[C@H](C)[C@@H](C)S(=O)(=O)NC(=O)c3ccc4c(c3)N(C[C@@H]3CCCN32)C[C@@]2(CCCc3cc(Cl)ccc32)CO4)CCN1C [Compound 23] | 10.27 | – | 101
16 | C[C@@H]1[C@@H](C)C/C=C(\F)[C@H](C(=O)N(C)Cc2ccn(C)n2)N2CCC[C@H]2CN2C[C@@]3(CCCc4cc(Cl)ccc43)COc3ccc(cc32)C(=O)NS1(=O)=O [Compound 40] | 9.21 | – | 138
17 | C[C@@H]1[C@@H](C)C/C=C(\F)[C@H](C(=O)N2CCC3(CCCCC3)C2)N2CCC[C@H]2CN2C[C@@]3(CCCc4cc(Cl)ccc43)COc3ccc(cc32)C(=O)NS1(=O)=O [Compound 32] | 9.22 | – | 478
18 | COCCN(CC1CCOCC1)C(=O)[C@H]1/C(F)=C/C[C@H](C)[C@@H](C)S(=O)(=O)NC(=O)c2ccc3c(c2)N(C[C@@H]2CCCN21)C[C@@]1(CCCc2cc(Cl)ccc21)CO3 [Compound 59] | 10.22 | – | 33.4
19 | C[C@@H]1[C@@H](C)C/C=C(\F)[C@H](C(=O)N(C)CCOc2cncc(F)c2)N2CCC[C@H]2CN2C[C@@]3(CCCc4cc(Cl)ccc43)COc3ccc(cc32)C(=O)NS1(=O)=O [Compound 48] | 9.81 | – | 112
20 | C[C@@H]1[C@@H](C)C/C=C(\F)[C@H](C(=O)N(C)CC2CCOC2)N2CCC[C@H]2CN2C[C@@]3(CCCc4cc(Cl)ccc43)COc3ccc(cc32)C(=O)NS1(=O)=O (single isomer, unassigned) [Compound 56] | 10.42 | – | 89.4
21 | C[C@@H]1[C@@H](C)C/C=C(\F)[C@H](C(=O)N(C)CC(F)(F)F)N2CCC[C@H]2CN2C[C@@]3(CCCc4cc(Cl)ccc43)COc3ccc(cc32)C(=O)NS1(=O)=O [Compound 30] | 9.42 | – | 351
22 | C[C@@H]1[C@@H](C)C/C=C(\F)[C@H](C(=O)N(C)CCOC2CCOCC2)N2CCC[C@H]2CN2C[C@@]3(CCCc4cc(Cl)ccc43)COc3ccc(cc32)C(=O)NS1(=O)=O [Compound 35] | 10.18 | – | 90.1
23 | COCCN(CCOC)C(=O)[C@H]1/C(F)=C/C[C@H](C)[C@@H](C)S(=O)(=O)NC(=O)c2ccc3c(c2)N(C[C@@H]2CCCN21)C[C@@]1(CCOc2cc(Cl)ccc21)CO3 [Compound 77] | 10.57 | – | 144
